In ChEMBL document CHEMBL1157451, “Effect of some P-glycoprotein modulators on Rhodamine-123 absorption in guinea-pig ileum” (Bioorg Med Chem Lett, 2008):

Assay: Inhibition of P-glycoprotein-mediated rhodamine 123 absorption in guinea-pig ileum
Format: tissue-based
Details: Cavia porcellus

COc1cccc(CCc2ccccc2OCc2ccccn2)c1
EC50: 14.7 µM

CC/C(=C(\c1ccccc1)c1ccc(OCCN(C)C)cc1)c1ccccc1 [TAMOXIFEN]
EC50: 39.4 µM
